Data: patent publication US10654848B1, “Neutrophil inflammation inhibitor and uses thereof” (Chang Gung University of Science and Technology, priority 2018, dated 2020)

Columns and labels:
BALB/c mice [1] = assay: Imiquimod-induced psoriasis-like skin inflammation in mice; assay type: in vivo, mouse; conditions: 20 mg/kg intraperitoneal, 30 min before 5% IMQ cream, daily for 7 days
Procedure: (§1) Male BALB/c mice aged 7-8 weeks were purchased from BioLASCO (Taipei, Taiwan) and maintained in a room with 12 hr light/dark cycles. Standard laboratory chow and water were available ad libitum. All animal experimental procedures were performed in accordance with guidelines and approved by the Institutional Animal Care and Use Committee of Chang Gung University.
Male BALB/c mice aged 7-8 weeks were used for the development of the imiquimod-induced psoriatic-like plaque model. The dorsal skin of the mice were shaved and received a daily topical dose of 62.5 mg of 5% imiquimod (IMQ) cream (Aldara, MEDA Pharma, Sweden) with or without a test compound (e.g., HKI-4971) treatment by intraperitoneal injection for 7 consecutive days.
Tissue samples were fixed in 10% neutral buffered formalin and embedding in paraffin blocks. Sections of the samples were prepared at 5 μm thickness and stained with hematoxylin and eosin (H&E). For immunohistochemistry staining, the sections were incubated with primary antibodies against Ly6g, MPO, and ki67 then the secondary antibody was applied for the detection of the primary antibody according to the manufacturer's instructions of the SuperPicture Polymer Detection Kit (Thermo Fisher, USA). Finally, the section slides were subsequently stained with DAB chromogen and counterstained with hematoxylin. […]

human neutrophils = assay: Elastase release in fMLF/CB-activated human neutrophils (MeO-Suc-Ala-Ala-Pro-Val-p-nitroanilide substrate); assay type: cell-based; conditions: Neutrophil, neutrophils in response to fMLF, Table 2, read-out: IC50 for suppressing elastase release
Procedure: Human neutrophils were obtained in lipopolysaccharide-free conditions by means of dextran sedimentation and Ficoll centrifugation.
Methoxysuccinyl-Ala-Ala-Pro-Val-p-nitroanilide was employed as the elastase substrate for the determination of elastase release. Briefly, after supplementation with Methoxysuccinyl-Ala-Ala-Pro-Val-p-nitroanilide (100 μM), neutrophils (6×10^5/mL) were equilibrated at 37° C. for 2 min and incubated with a candidate compound at various concentrations for 5 min. Cells were then activated with fMLF (0.1 μM) for 10 min in the pre-process of CB (0.5 μg/mL) for 3 min, and changes in absorbance at 405 nm were continuously monitored to evaluate elastase release. Results are expressed as the percentage of elastase release in the drug-free control group, DMSO.

BALB/c mice [2] = assay: Liver and kidney function (ALT, AST, BUN, creatinine) in blood of imiquimod-induced mice; assay type: in vivo, mouse; conditions: blood samples, 20 mg/kg intraperitoneal, alone or with IMQ, 7 days; FIG. 3 (n=3)
Procedure: In this example, the effect of HKI-4971 (or compound 13) on the development of psoriasis was investigated using the well-established psoriasis animal model, in which imiquimod (IMQ) was used to induce psoriasis-like skin inflammation. Briefly, BALB/c mice are pre-treated by intraperitoneal injection of HKI-4971 (20 mg/kg) for 30 min before 5% IMQ cream was topically administered onto the back of the mice every day for 7 days. Then, skin samples taken from these animals were subjected to microscopy examination and immunohistochemistry staining, while blood samples were subjected to analysis for liver and kidney functions. Results are depicted in FIGS. 1 to 3.
Blood samples taken from IMQ- or IMQ+HKI-4971 treated animals were analyzed for the levels of alanine aminotransferase and aspartate transaminase, which were used as indicators for assessing liver function; and the levels of blood […] nitrogen (BUN) and creatinine (CRE), which were used as indicators for assessing the kidney function. Results are illustrated in FIG. 3.

BALB/c mice [3] = assay: LPS-induced acute lung injury (ALI) model in mice; assay type: in vivo, mouse; conditions: 20 mg/Kg intravenous 1 hr before intratracheal LPS, 5 hrs
Procedure: as §1
Mice were pre-treated with a candidate compound (e.g., HKI-4971), which was dissolved in 50 μl saline solution containing 10% DMSO and 20% Kolliphor EL (Sigma-Aldrich, USA), by intravenous injection. […]
Lung tissues were homogenized in PBS (50 Mm, pH 6.0) containing 0.5% (w/v) hexadecyltrimethylammonium bromide (HETAB) (Sigma-Aldrich, USA) by using the MagNA Lyser Instrument (Roche, Germany), and was further centrifuged at 12,000×g for 20 min at 4° C. to remove the insoluble material. The peroxidase activity was measured as the oxidation of o-Dianisidine dihydrochloride (Sigma-Aldrich, USA). […] The absorption was determined spectrophotometrically at 405 nm. […]
In this example, the Gram-negative bacterial endotoxin LPS induced ALI in mice was employed to mimic ARDS in human, and the effect of HKI-4971 was evaluated. […]

Cn1nc(N)c2c(Nc3ccc(O)cc3)nc3ccccc3c21 [Compound 13, 4-(4-Hydroxyanilino)-1-methyl-1H-pyrazolo[4,3-c]quinolin-3-amine]
Severity or progression of IMQ-induced psoriasis (BALB/c mice [1]; FIG. 1): reduce the severity or progression
Immunostaining of skin: markers for cell proliferation (ki-67) and for neutrophils (Ly6g and MPO) (BALB/c mice [1]; FIG. 2): reduced
IC50 (human neutrophils): 32 ± 17 nM
Liver function (alanine aminotransferase, aspartate transaminase) and kidney function (BUN, creatinine) (BALB/c mice [2]): did not result in significant damage
MPO activity in lung tissues (BALB/c mice [3]; FIG. 4(A) (n=3)): suppressed
LPS-induced neutrophil infiltration and lung injury (H&E, Ly6g and MPO staining of lung sections) (BALB/c mice [3]; FIG. 4(B)): significantly alleviated
